In PubChem BioAssay AID2060890 (Molecular Pharmacology Branch, DTP, NCI, 2025):

Tested on: LG0703-F948-PDC complex spheroid viability
Assay: Anticancer human tumor LG0703-F948-PDC patient-derived lung adenocarcinoma cell line growth inhibition [RAS]
Settings: for IC50: curve of first compound; for viability, T/C: stronger effect = lower value
In short: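 Agents were tested in combination matrices in half-log decrements from a top concentration at or near clinical Cmax (10 microM if undetermined). Targets were multi-cell spheroids of tumour lines plus HUVEC and MSC stromal cells.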

[1] = second compound 0.0316 µM, first compound 0.0316 µM
[2] = second compound 0.0316 µM, first compound 0.1 µM
[3] = second compound 0.0316 µM, first compound 0.316 µM
[4] = second compound 0.0316 µM, first compound 1 µM
[5] = second compound 0.1 µM, first compound 0.0316 µM
[6] = second compound 0.1 µM, first compound 0.1 µM
[7] = second compound 0.1 µM, first compound 0.316 µM
[8] = second compound 0.1 µM, first compound 1 µM
[9] = second compound 0.316 µM, first compound 0.0316 µM
[10] = second compound 0.316 µM, first compound 0.1 µM
[11] = second compound 0.316 µM, first compound 0.316 µM
[12] = second compound 0.316 µM, first compound 1 µM
[13] = second compound 1 µM, first compound 0.0316 µM
[14] = second compound 1 µM, first compound 0.1 µM
[15] = second compound 1 µM, first compound 0.316 µM
[16] = second compound 1 µM, first compound 1 µM
[17] = second compound 3.16 µM, first compound 0.0316 µM
[18] = second compound 3.16 µM, first compound 0.1 µM
[19] = second compound 3.16 µM, first compound 0.316 µM
[20] = second compound 3.16 µM, first compound 1 µM
[21] = second compound 10 µM, first compound 0.0316 µM
[22] = second compound 10 µM, first compound 0.1 µM
[23] = second compound 10 µM, first compound 0.316 µM
[24] = second compound 10 µM, first compound 1 µM
[25] = second compound 0.0316 µM, first compound 0.000949 µM
[26] = second compound 0.0316 µM, first compound 0.003 µM
[27] = second compound 0.0316 µM, first compound 0.00949 µM
[28] = second compound 0.0316 µM, first compound 0.03 µM
[29] = second compound 0.0316 µM, first compound 0.0949 µM
[30] = second compound 0.0316 µM, first compound 0.3 µM
[31] = second compound 0.1 µM, first compound 0.000949 µM
[32] = second compound 0.1 µM, first compound 0.003 µM
[33] = second compound 0.1 µM, first compound 0.00949 µM
[34] = second compound 0.1 µM, first compound 0.03 µM
[35] = second compound 0.1 µM, first compound 0.0949 µM
[36] = second compound 0.1 µM, first compound 0.3 µM
[37] = second compound 0.316 µM, first compound 0.000949 µM
[38] = second compound 0.316 µM, first compound 0.003 µM
[39] = second compound 0.316 µM, first compound 0.00949 µM
[40] = second compound 0.316 µM, first compound 0.03 µM
[41] = second compound 0.316 µM, first compound 0.0949 µM
[42] = second compound 0.316 µM, first compound 0.3 µM
[43] = second compound 1 µM, first compound 0.000949 µM
[44] = second compound 1 µM, first compound 0.003 µM
[45] = second compound 1 µM, first compound 0.00949 µM
[46] = second compound 1 µM, first compound 0.03 µM
[47] = second compound 1 µM, first compound 0.0949 µM
[48] = second compound 1 µM, first compound 0.3 µM
[49] = second compound 3.16 µM, first compound 0.000949 µM
[50] = second compound 3.16 µM, first compound 0.003 µM
[51] = second compound 3.16 µM, first compound 0.00949 µM
[52] = second compound 3.16 µM, first compound 0.03 µM
[53] = second compound 3.16 µM, first compound 0.0949 µM
[54] = second compound 3.16 µM, first compound 0.3 µM
[55] = second compound 10 µM, first compound 0.000949 µM
[56] = second compound 10 µM, first compound 0.003 µM
[57] = second compound 10 µM, first compound 0.00949 µM
[58] = second compound 10 µM, first compound 0.03 µM
[59] = second compound 10 µM, first compound 0.0949 µM
[60] = second compound 10 µM, first compound 0.3 µM
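Further: spheroids exposed to agents for 7 days.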
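Wherever viability, T/C is given: 100% = DMSO vehicle wells.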

C=CC(=O)N1CCN(c2nc(OCC3CCCN3C)nc3c(F)c(-c4nc(N)cc(C)c4C(F)(F)F)c(Cl)cc23)C(C)C1 (stereo not drawn) + C#Cc1c(F)ccc2cc(O)cc(-c3ncc4c(N5CC6CCC(C5)N6)nc(OCC56CCCN5CC(F)C6)nc4c3F)c12
IC50 (second compound 0.0316 µM): > 1000 nM
IC50 (second compound 0.1 µM): > 1000 nM
IC50 (second compound 0.316 µM): > 1000 nM
IC50 (second compound 1 µM): > 1000 nM
IC50 (second compound 3.16 µM): > 1000 nM
IC50 (second compound 10 µM): 197 nM
viability, T/C (second compound 0.0316 µM, first compound 0.00316 µM): 127%
viability, T/C (second compound 0.0316 µM, first compound 0.01 µM): 87.8%
viability, T/C [1]: 111%
viability, T/C [2]: 120%
viability, T/C [3]: 109%
viability, T/C [4]: 85.2%
viability, T/C (second compound 0.1 µM, first compound 0.00316 µM): 98.7%
viability, T/C (second compound 0.1 µM, first compound 0.01 µM): 110%
viability, T/C [5]: 94.9%
viability, T/C [6]: 104%
viability, T/C [7]: 109%
viability, T/C [8]: 97.8%
viability, T/C (second compound 0.316 µM, first compound 0.00316 µM): 89.5%
viability, T/C (second compound 0.316 µM, first compound 0.01 µM): 82.2%
viability, T/C [9]: 86.1%
viability, T/C [10]: 72.6%
viability, T/C [11]: 82%
viability, T/C [12]: 84.6%
viability, T/C (second compound 1 µM, first compound 0.00316 µM): 63.7%
viability, T/C (second compound 1 µM, first compound 0.01 µM): 76.6%
viability, T/C [13]: 79.3%
viability, T/C [14]: 66.2%
viability, T/C [15]: 73.9%
viability, T/C [16]: 75%
viability, T/C (second compound 3.16 µM, first compound 0.00316 µM): 61.8%
viability, T/C (second compound 3.16 µM, first compound 0.01 µM): 57.8%
viability, T/C [17]: 75.3%
viability, T/C [18]: 63.6%
viability, T/C [19]: 59.3%
viability, T/C [20]: 62.9%
viability, T/C (second compound 10 µM, first compound 0.00316 µM): 51.9%
viability, T/C (second compound 10 µM, first compound 0.01 µM): 54.2%
viability, T/C [21]: 54.1%
viability, T/C [22]: 47.5%
viability, T/C [23]: 50.7%
viability, T/C [24]: 47%

CC(=O)OC12COC1CC(O)C1(C)C(=O)C(O)C3=C(C)C(OC(=O)C(O)C(NC(=O)OC(C)(C)C)c4ccccc4)CC(O)(C(OC(=O)c4ccccc4)C21)C3(C)C (stereo not drawn) + C#Cc1c(F)ccc2cc(O)cc(-c3ncc4c(N5CC6CCC(C5)N6)nc(OCC56CCCN5CC(F)C6)nc4c3F)c12
IC50 (second compound 0.0316 µM): < 31.6 nM
IC50 (second compound 0.1 µM): < 31.6 nM
IC50 (second compound 0.316 µM): < 31.6 nM
IC50 (second compound 1 µM): < 31.6 nM
IC50 (second compound 3.16 µM): < 31.6 nM
IC50 (second compound 10 µM): < 31.6 nM
viability, T/C [1]: 28.1%
viability, T/C [2]: 22.9%
viability, T/C [3]: 23.7%
viability, T/C [4]: 27.4%
viability, T/C (second compound 0.0316 µM, first compound 3.16 µM): 33.1%
viability, T/C (second compound 0.0316 µM, first compound 10 µM): 27.8%
viability, T/C [5]: 23.5%
viability, T/C [6]: 27.3%
viability, T/C [7]: 24.9%
viability, T/C [8]: 32%
viability, T/C (second compound 0.1 µM, first compound 3.16 µM): 32.9%
viability, T/C (second compound 0.1 µM, first compound 10 µM): 25.2%
viability, T/C [9]: 27.2%
viability, T/C [10]: 22.6%
viability, T/C [11]: 27.7%
viability, T/C [12]: 26.2%
viability, T/C (second compound 0.316 µM, first compound 3.16 µM): 24.8%
viability, T/C (second compound 0.316 µM, first compound 10 µM): 22.9%
viability, T/C [13]: 25.5%
viability, T/C [14]: 26.4%
viability, T/C [15]: 24.6%
viability, T/C [16]: 26.4%
viability, T/C (second compound 1 µM, first compound 3.16 µM): 22.7%
viability, T/C (second compound 1 µM, first compound 10 µM): 20.1%
viability, T/C [17]: 23.5%
viability, T/C [18]: 22.8%
viability, T/C [19]: 23%
viability, T/C [20]: 18.9%
viability, T/C (second compound 3.16 µM, first compound 3.16 µM): 16.3%
viability, T/C (second compound 3.16 µM, first compound 10 µM): 16.1%
viability, T/C [21]: 17.2%
viability, T/C [22]: 18.5%
viability, T/C [23]: 16%
viability, T/C [24]: 11.8%
viability, T/C (second compound 10 µM, first compound 3.16 µM): 8.84%
viability, T/C (second compound 10 µM, first compound 10 µM): 5.54%

CC1(C)CCC(Nc2ncc(C(F)(F)F)c(-c3c[nH]c4c(P(C)(C)=O)c(C#N)ccc34)n2)CN1 (stereo not drawn) + C#Cc1c(F)ccc2cc(O)cc(-c3ncc4c(N5CC6CCC(C5)N6)nc(OCC56CCCN5CC(F)C6)nc4c3F)c12
IC50 (second compound 0.0316 µM): > 300 nM
IC50 (second compound 0.1 µM): > 300 nM
IC50 (second compound 0.316 µM): > 300 nM
IC50 (second compound 1 µM): > 300 nM
IC50 (second compound 3.16 µM): > 300 nM
IC50 (second compound 10 µM): 3.26 nM
viability, T/C [25]: 83.1%
viability, T/C [26]: 65.2%
viability, T/C [27]: 61.7%
viability, T/C [28]: 55.8%
viability, T/C [29]: 63.3%
viability, T/C [30]: 67.2%
viability, T/C [31]: 93%
viability, T/C [32]: 80.7%
viability, T/C [33]: 63.9%
viability, T/C [34]: 69.5%
viability, T/C [35]: 76.9%
viability, T/C [36]: 66.3%
viability, T/C [37]: 85.6%
viability, T/C [38]: 58.7%
viability, T/C [39]: 62.5%
viability, T/C [40]: 67.5%
viability, T/C [41]: 66%
viability, T/C [42]: 71.2%
viability, T/C [43]: 62.3%
viability, T/C [44]: 76.4%
viability, T/C [45]: 62.5%
viability, T/C [46]: 59.5%
viability, T/C [47]: 68.9%
viability, T/C [48]: 66.4%
viability, T/C [49]: 65.7%
viability, T/C [50]: 57.5%
viability, T/C [51]: 45.1%
viability, T/C [52]: 53%
viability, T/C [53]: 63.9%
viability, T/C [54]: 54.4%
viability, T/C [55]: 58.3%
viability, T/C [56]: 48.9%
viability, T/C [57]: 37.6%
viability, T/C [58]: 47.7%
viability, T/C [59]: 50.3%
viability, T/C [60]: 44.4%

CCc1c2c(nc3ccc(O)cc13)-c1cc3c(c(=O)n1C2)COC(=O)[C@]3(O)CC + C#Cc1c(F)ccc2cc(O)cc(-c3ncc4c(N5CC6CCC(C5)N6)nc(OCC56CCCN5CC(F)C6)nc4c3F)c12
IC50 (second compound 0.0316 µM): 38.2 nM
IC50 (second compound 0.1 µM): 35.9 nM
IC50 (second compound 0.316 µM): 47.6 nM
IC50 (second compound 1 µM): 34.9 nM
IC50 (second compound 3.16 µM): 32.2 nM
IC50 (second compound 10 µM): < 0.949 nM
viability, T/C [25]: 98.4%
viability, T/C [26]: 90.5%
viability, T/C [27]: 72.3%
viability, T/C [28]: 48.3%
viability, T/C [29]: 41.7%
viability, T/C [30]: 19.7%
viability, T/C [31]: 92.4%
viability, T/C [32]: 91.1%
viability, T/C [33]: 77.6%
viability, T/C [34]: 49.8%
viability, T/C [35]: 36.4%
viability, T/C [36]: 20.1%
viability, T/C [37]: 85.3%
viability, T/C [38]: 77.7%
viability, T/C [39]: 81.5%
viability, T/C [40]: 51.7%
viability, T/C [41]: 41.4%
viability, T/C [42]: 20.2%
viability, T/C [43]: 65.5%
viability, T/C [44]: 61.7%
viability, T/C [45]: 61.7%
viability, T/C [46]: 50.9%
viability, T/C [47]: 38.4%
viability, T/C [48]: 25.3%
viability, T/C [49]: 58.5%
viability, T/C [50]: 60.3%
viability, T/C [51]: 50.3%
viability, T/C [52]: 52.7%
viability, T/C [53]: 30.4%
viability, T/C [54]: 17%
viability, T/C [55]: 41%
viability, T/C [56]: 49.4%
viability, T/C [57]: 46.9%
viability, T/C [58]: 33.9%
viability, T/C [59]: 30.4%
viability, T/C [60]: 15.7%
